Measured values taken from US9266857B2, “Bicyclic AZA compounds as muscarinic M1 receptor agonists” (Heptares Therapeutics Limited, priority 2012, dated 2016).
Where two headings read alike, the source gives them in different places.

Columns and labels:
Format in all cases: cell-based
[1] = biological target: T1, human muscarinic M1 receptor (Homo sapiens, UniProt P11229); assay: Alphascreen Surefire phospho-ERK1/2 functional assay, M1; conditions: for EC50: CHO cells stably expressing human M1, phospho-ERK1/2, read-out: pEC50 M1 (converted); for Emax: CHO
T1 construct: expressed in transfected cells
T1 sequence (P11229 1-460): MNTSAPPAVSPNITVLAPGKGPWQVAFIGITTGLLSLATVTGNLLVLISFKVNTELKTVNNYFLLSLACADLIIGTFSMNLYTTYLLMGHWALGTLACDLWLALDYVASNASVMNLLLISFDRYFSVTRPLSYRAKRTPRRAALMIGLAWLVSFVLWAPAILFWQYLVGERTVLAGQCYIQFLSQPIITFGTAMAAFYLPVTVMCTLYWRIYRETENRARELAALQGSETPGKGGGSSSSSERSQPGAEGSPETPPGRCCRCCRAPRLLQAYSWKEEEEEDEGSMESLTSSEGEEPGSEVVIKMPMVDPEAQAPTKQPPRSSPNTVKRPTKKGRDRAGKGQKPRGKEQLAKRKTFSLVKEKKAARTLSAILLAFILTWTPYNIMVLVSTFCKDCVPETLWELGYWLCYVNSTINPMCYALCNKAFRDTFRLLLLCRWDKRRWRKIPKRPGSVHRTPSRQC
Description: (§1) ERK1/2 phosphorylation is a downstream consequence of both Gq/11 and Gi/o protein coupled receptor activation, making it highly suitable for the assessment of M1, M3 (Gq/11 coupled) and M2, M4 receptors (Gi/o coupled), rather than using different assay formats for different receptor subtypes. CHO cells stably expressing the human muscarinic M1, M2, M3 or M4 receptor were plated (25K/well) onto 96-well tissue culture plates in MEM-alpha+10% dialysed FBS. Once adhered, cells were serum-starved overnight. Agonist stimulation was performed by the addition of 5 μL agonist to the cells for 5 min (37° C.). Media was removed and 50 μL of lysis buffer added. After 15 min, a 4 μL sample was transferred to 384-well plate and 7 μL of detection mixture added. Plates were incubated for 2 h with gentle agitation in the dark and then read on a PHERAstar plate reader.
(§2) pEC50 and Emax figures were calculated from the resulting data for each receptor subtype.

[2] = biological target: T2, human muscarinic M2 receptor (Homo sapiens, UniProt P08172); assay: Alphascreen Surefire phospho-ERK1/2 functional assay, M2; conditions: for EC50: CHO cells stably expressing human M2, phospho-ERK1/2, read-out: pEC50 M2 (converted); for Emax: CHO, read-out: % Emax cf. ACh, M2
T2 construct: expressed in transfected cells
T2 sequence (P08172 1-466): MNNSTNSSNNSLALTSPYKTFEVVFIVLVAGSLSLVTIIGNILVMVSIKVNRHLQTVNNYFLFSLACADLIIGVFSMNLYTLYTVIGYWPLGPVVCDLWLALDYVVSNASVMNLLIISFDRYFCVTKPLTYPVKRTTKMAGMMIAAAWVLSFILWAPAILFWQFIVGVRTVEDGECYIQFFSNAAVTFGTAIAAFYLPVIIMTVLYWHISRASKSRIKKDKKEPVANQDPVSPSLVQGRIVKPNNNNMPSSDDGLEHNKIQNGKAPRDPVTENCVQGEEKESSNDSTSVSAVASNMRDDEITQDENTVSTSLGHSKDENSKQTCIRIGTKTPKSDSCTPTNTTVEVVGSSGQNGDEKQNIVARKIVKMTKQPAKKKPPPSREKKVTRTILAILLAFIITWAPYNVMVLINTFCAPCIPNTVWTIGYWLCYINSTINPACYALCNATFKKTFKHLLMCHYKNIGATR
Description: as §1, §2

[3] = biological target: T3, human muscarinic M3 receptor (Homo sapiens, UniProt P20309); assay: Alphascreen Surefire phospho-ERK1/2 functional assay, M3; conditions: for EC50: CHO cells stably expressing human M3, phospho-ERK1/2, read-out: pEC50 M3 (converted); for Emax: CHO, read-out: % Emax cf. ACh, M3
T3 construct: expressed in transfected cells
T3 sequence (P20309 whole entry): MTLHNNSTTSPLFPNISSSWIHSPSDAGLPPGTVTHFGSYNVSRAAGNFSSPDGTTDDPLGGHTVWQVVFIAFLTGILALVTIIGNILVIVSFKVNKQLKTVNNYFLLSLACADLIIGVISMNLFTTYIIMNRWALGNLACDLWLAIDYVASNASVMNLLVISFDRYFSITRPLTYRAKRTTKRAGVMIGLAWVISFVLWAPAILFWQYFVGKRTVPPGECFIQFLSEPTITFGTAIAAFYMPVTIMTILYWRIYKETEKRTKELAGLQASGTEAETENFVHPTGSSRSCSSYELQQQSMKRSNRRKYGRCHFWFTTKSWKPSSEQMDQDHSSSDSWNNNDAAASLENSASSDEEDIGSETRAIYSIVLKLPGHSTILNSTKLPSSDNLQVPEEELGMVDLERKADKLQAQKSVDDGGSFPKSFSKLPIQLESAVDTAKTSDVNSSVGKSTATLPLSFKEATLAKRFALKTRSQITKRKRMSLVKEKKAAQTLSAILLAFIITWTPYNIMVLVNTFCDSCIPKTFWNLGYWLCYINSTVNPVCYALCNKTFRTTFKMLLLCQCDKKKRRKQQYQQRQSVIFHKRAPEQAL
Description: as §1, §2

[4] = biological target: T4, human muscarinic M4 receptor (Homo sapiens, UniProt P08173); assay: Alphascreen Surefire phospho-ERK1/2 functional assay, M4; conditions: for EC50: phospho-ERK1/2, read-out: pEC50 M4 (converted); for Emax: CHO
T4 construct: expressed in transfected cells
T4 sequence (P08173 1-479): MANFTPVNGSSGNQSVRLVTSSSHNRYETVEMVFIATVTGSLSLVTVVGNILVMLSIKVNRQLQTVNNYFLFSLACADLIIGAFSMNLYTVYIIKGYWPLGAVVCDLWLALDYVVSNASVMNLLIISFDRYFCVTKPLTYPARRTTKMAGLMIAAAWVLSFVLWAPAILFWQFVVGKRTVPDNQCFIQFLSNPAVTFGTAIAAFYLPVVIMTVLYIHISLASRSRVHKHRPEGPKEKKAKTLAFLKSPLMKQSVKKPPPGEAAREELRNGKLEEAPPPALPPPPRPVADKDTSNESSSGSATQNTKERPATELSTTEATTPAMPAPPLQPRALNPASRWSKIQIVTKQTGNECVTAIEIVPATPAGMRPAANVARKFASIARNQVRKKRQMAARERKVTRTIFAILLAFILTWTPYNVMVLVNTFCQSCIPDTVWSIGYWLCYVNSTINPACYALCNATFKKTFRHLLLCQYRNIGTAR
Description: as §1, §2

[5] = read-out: % Emax cf. ACh, M1, CHO cells stably expressing human M1, relative to ACh
[6] = CHO cells stably expressing human M4
[7] = read-out: % Emax cf. ACh, M4, CHO cells stably expressing human M4, relative to ACh

SMILES	EC50 [1] [nM]	Emax [1, 5] [%]	EC50 [2] [nM]	Emax [2] [%]	EC50 [3] [nM]	Emax [3] [%]	EC50 [4, 6] [nM]	Emax [4, 7] [%]	Emax ([1]; read-out: % Emax cf. ACh, M1) [%]	Emax ([4]; read-out: % Emax cf. ACh, M4) [%]	% Emax cf. ACh, M4 ([4]; CHO cells stably expressing human M4, relative to ACh, listed as 1 - Isomer 1) [%]
CCOC(=O)N1[C@@H]2CCC[C@H]1CC(N1CCC(C(=O)NC3(C)CCC3)CC1)C2 (mixture of isomers) [Example 6 - mixture of diastereomers, ethyl 3-{4-[(1-methylcyclobutyl)carbamoyl]piperidin-1-yl}-9-azabicyclo[3.3.1]nonane-9-carboxylate]	43.7	151	> 20000	13	> 20000	5	468	54			
CCOC(=O)N1CC2CC(N3CCC(C(=O)NC4(C)CCC4)CC3)CC1C2 (mixture of isomers) [Example 7 - mixture of diastereomers, ethyl 3-{4-[(1-methylcyclobutyl)carbamoyl]piperidin-1-yl}-6-azabicyclo[3.2.1]octane-6-carboxylate]	55		> 20000	10	> 20000	4	447		127	81	
CCOC(=O)N1CC2CC(N3CCC(C(=O)NC4(C)CCC4)CC3)CC2C1 (mixture of isomers) [Example 8 - mixture of diastereomers, ethyl 5-{4-[(1-methylcyclobutyl)carbamoyl]piperidin-1-yl}hexahydrocyclopenta[c]pyrrole-2(1H)-carboxylate]	110		> 20000	5	> 20000	8	1700		118	29	
CCOC(=O)N1CCC2(CC(N3CCC(C(=O)NC(C)(C)CC)CC3)C2)C1 (mixture of isomers) [Example 16 - mixture of diastereomers, ethyl 2-{4-[(2-methylbutan-2-yl)carbamoyl]piperidin-1-yl}-6-azaspiro[3.4]octane-6-carboxylate]	309						646		113	56	
CCOC(=O)N1CCC2(CC(N3CCC(C(=O)NCC4CCC4)CC3)C2)C1 (mixture of isomers) [Example 19 - mixture of diastereomers, ethyl 2-{4-[(cyclobutylmethyl)carbamoyl]piperidin-1-yl}-6-azaspiro[3.4]octane-6-carboxylate]	363						1020		109	42	
[2H]C([2H])([2H])C([2H])([2H])OC(=O)N1CCC2(CC(N3CCC(C(=O)NC4(C([2H])([2H])[2H])C([2H])([2H])C([2H])([2H])C4([2H])[2H])CC3)C2)C1 (mixture of isomers) [Example 31 - mixture of diastereomers, (1,1,2,2,2-pentadeutero)ethyl 2-(4-{[1-(1,1,1-trideuteromethyl)-2,2,3,3,4,4-hexadeuterocyclobutyl]carbamoyl}piperidin-1-yl)-6-azaspiro[3.4]octane-6-carboxylate]	407						646		110	77	
CCOC(=O)N1C2CCC1CC(N1CCC(C(=O)NC3(C)CCC3)CC1)C2 (single isomer, unassigned) [Example 1 - Isomer 1, ethyl 3-{4-[(1-methylcyclobutyl)carbamoyl]piperidin-1-yl}-8-azabicyclo[3.2.1]octane-8-carboxylate]	324	99					1020				51
CCOC(=O)N1C2CCC1CC(N1CCC(F)(C(=O)NC3(C)CCC3)CC1)C2 (single isomer, unassigned) [Example 4 - Isomer 2, ethyl 3-{4-fluoro-4-[(1-methylcyclobutyl)carbamoyl]piperidin-1-yl}-8-azabicyclo[3.2.1]octane-8-carboxylate]	145	111					1070	44			
CCOC(=O)N1CCC2(CC(N3CCC(C(=O)NC4(C)CCC4)CC3)C2)C1 (single isomer, unassigned) [Example 9 - Isomer 1, ethyl 2-{4-[(1-methylcyclobutyl)carbamoyl]piperidin-1-yl}-6-azaspiro[3.4]octane-6-carboxylate]	302						589		102	67	
[2H]C([2H])([2H])C1(NC(=O)C2CCN(C3CC4(CCN(C(=O)OCC)C4)C3)CC2)C([2H])([2H])C([2H])([2H])C1([2H])[2H] (single isomer, unassigned) [Example 22 - Isomer 2, ethyl 2-(4-{[1-(1,1,1-trideuteromethyl)-2,2,3,3,4,4-hexadeuterocyclobutyl]carbamoyl}piperidin-1-yl)-6-azaspiro[3.4]octane-6-carboxylate]	79.4						209		103	67	
CCOC(=O)N1CCC2(CC(N3CCC(C(=O)NC4(CF)CCC4)CC3)C2)C1 (single isomer, unassigned) [Example 23 - Isomer 2, ethyl 2-(4-{[1-(fluoromethyl)cyclobutyl]carbamoyl}piperidin-1-yl)-6-azaspiro[3.4]octane-6-carboxylate]	155						219		90	67	
[2H]C([2H])([2H])COC(=O)N1CCC2(CC(N3CCC(C(=O)NC4(C([2H])([2H])[2H])CCC4)CC3)C2)C1 (single isomer, unassigned) [Example 26 - Isomer 2, (2,2,2-trideutero)ethyl 2-(4-{[1-(1,1,1-trideuteromethyl)cyclobutyl]carbamoyl}piperidin-1-yl)-6-azaspiro[3.4]octane-6-carboxylate]	81.3						257		108	110	
[2H]C([2H])([2H])COC(=O)N1CCC2(CC(N3CCC(C(=O)NC4(CF)CCC4)CC3)C2)C1 (single isomer, unassigned) [Example 28 - Isomer 2, (2,2,2-trideutero)ethyl 2-(4-{[1-(fluoromethyl)cyclobutyl]carbamoyl}piperidin-1-yl)-6-azaspiro[3.4]octane-6-carboxylate]	324						309		120	106	
[2H]C([2H])([2H])C1(NC(=O)C2CCN(C3CC4(CCN(C(=O)OC([2H])([2H])C([2H])([2H])[2H])C4)C3)CC2)CCC1 (single isomer, unassigned) [Example 30 - Isomer 2, (1,1,2,2,2-pentadeutero)ethyl 2-(4-{[1-(1,1,1-trideuteromethyl)cyclobutyl]carbamoyl}piperidin-1-yl)-6-azaspiro[3.4]octane-6-carboxylate]	85.1						195		105	111	
